Values quoted from earlier work as cited in US8507011B2, “Method for suppressing or preventing fibrous adhesion formation using a multicomponent aqueous oxychlorine composition prepared on-site” (priority 2009, dated 2013).

Experiments:
wound = conditions: 0.01% concentration
adhesion = conditions: interperitoneal infusion, rats

| SMILES | pKa | Wound irrigant activity (in words) (wound) | Adhesion suppression versus control (in words) (adhesion) |
| --- | --- | --- | --- |
| OCl [hypochlorous acid] | about 7.5 | showed promise as an effective antimicrobial wound irrigant | – |
| CN(C)c1ccc2nc3ccc(=[N+](C)C)cc-3sc2c1 [methylene blue] | – | – | none were found between methylene blue and control |
